Like-named read-outs stand apart in the source and are kept apart here.
Key:
[1] = target: KatG (Mycobacterium tuberculosis, UniProt P9WIE5); assay: CO detection: KatG/tBHP activation, CO trapped by deoxyMyoglobin (MbCO, absorbance 540 nm); assay type: biochemical
[2] = system: dos regulon genes (dosR, dosS, fdxA); assay type: cell-based, M. bovis BCG
[3] = system: dos regulon genes (dosR, dosS, fdxA); assay type: cell-based; conditions: Mtb H37Rv treated for 4 hours; Real time PCR
[4] = system: M. turberculosis Dormancy Regulon; conditions: Kumar et al., cited from earlier work

KatG, sequence (P9WIE5 whole entry): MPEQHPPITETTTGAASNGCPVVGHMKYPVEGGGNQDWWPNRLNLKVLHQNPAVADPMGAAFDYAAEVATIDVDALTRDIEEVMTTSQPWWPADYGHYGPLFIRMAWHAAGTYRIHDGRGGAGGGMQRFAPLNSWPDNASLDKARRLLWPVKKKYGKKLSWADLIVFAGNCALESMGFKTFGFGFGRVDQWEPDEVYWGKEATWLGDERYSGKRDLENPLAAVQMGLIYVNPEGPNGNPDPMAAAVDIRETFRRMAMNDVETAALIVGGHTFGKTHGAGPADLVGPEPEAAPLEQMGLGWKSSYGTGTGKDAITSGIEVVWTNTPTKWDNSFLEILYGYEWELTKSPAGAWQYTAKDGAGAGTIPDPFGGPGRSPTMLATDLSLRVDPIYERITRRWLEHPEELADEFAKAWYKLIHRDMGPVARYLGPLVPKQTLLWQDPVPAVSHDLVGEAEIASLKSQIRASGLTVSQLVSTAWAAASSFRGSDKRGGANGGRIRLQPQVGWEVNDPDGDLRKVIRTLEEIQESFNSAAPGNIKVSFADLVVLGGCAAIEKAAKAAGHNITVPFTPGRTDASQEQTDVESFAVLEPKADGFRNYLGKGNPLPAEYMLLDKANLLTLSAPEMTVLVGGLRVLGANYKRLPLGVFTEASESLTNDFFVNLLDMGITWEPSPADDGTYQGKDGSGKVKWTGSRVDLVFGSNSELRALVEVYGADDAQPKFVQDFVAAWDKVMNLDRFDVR

## NC(=O)c1ccc[n+]([C@@H]2O[C@H](COP(=O)([O-])OP(=O)(O)OC[C@H]3O[C@@H](n4cnc5c(N)ncnc54)[C@H](O)[C@@H]3O)[C@@H](O)[C@H]2O)c1 [NAD+, NAD]
[1]; various dosages, Kat G 22.44 μg per reaction, 1 mM tBHP
  formation of MbCO (CO-Mb): inhibited

## NNC(=O)c1ccncc1 [INH, Isoniazid]
[2]
  expression of dos regulon genes (dosR, dosS, fdxA): significantly increased
[3]
  expression of dos regulon genes (dosR, dosS, fdxA): significantly increased
[1]
  CO produced from activated compound: dependent upon dose, time, and KatG

## [C-]#[O+] [CO]
[4]; gene Rv0079
  +CO/−CO: 3.3
[4]; gene Rv0080
  +CO/−CO: 2.9
[4]; gene Rv0081
  +CO/−CO: 2.3
[4]; gene Rv0669
  +CO/−CO: 6
[4]; gene Rv0670 nroZ
  +CO/−CO: 3.2
[4]; gene Rv0671
  +CO/−CO: 2.3
[4]; gene Rv0672
  +CO/−CO: 2.8
[4]; gene Rv0673 pncB2
  +CO/−CO: 1.5
[4]; gene Rv0674
  +CO/−CO: 1.7
[4]; gene Rv1733
  +CO/−CO: 2.3
[4]; gene Rv1734
  +CO/−CO: 2
[4]; gene Rv1735
  +CO/−CO: 1.6
[4]; gene Rv1736 narX
  +CO/−CO: 2.4
[4]; gene Rv1737 narK2
  +CO/−CO: 2.1
[4]; gene Rv1738
  +CO/−CO: 5.8
[4]; gene Rv1812
  +CO/−CO: 1.9
[4]; gene Rv1813
  +CO/−CO: 5.1
[4]; gene Rv1996
  +CO/−CO: 2.4
[4]; gene Rv1997 ctpF
  +CO/−CO: 6.8
[4]; gene Rv2003
  +CO/−CO: 3.3
[4]; gene Rv2004
  +CO/−CO: 4.8
[4]; gene Rv2005
  +CO/−CO: 6.7
[4]; gene Rv2006 otsB1
  +CO/−CO: 2.6
[4]; gene Rv2007 foxA
  +CO/−CO: 7.1
[4]; gene Rv2028
  +CO/−CO: 1.9
[4]; gene Rv2029 pkfB
  +CO/−CO: 6.6
[4]; gene Rv2030
  +CO/−CO: 9.2
[4]; gene Rv2031 hsoX (acr)
  +CO/−CO: 5.2
[4]; gene Rv2032 acg
  +CO/−CO: 8.4
[4]; gene Rv2823 TB31.7
  +CO/−CO: 6.8
[4]; gene Rv2824
  +CO/−CO: 7.1
[4]; gene Rv2825
  +CO/−CO: 2.2
[4]; gene Rv2826 hrp1
  +CO/−CO: 10
[4]; gene Rv2827
  +CO/−CO: 4.2
[4]; gene Rv2828
  +CO/−CO: 6.8
[4]; gene Rv2829
  +CO/−CO: 2.6
[4]; gene Rv2830
  +CO/−CO: 5.2
[4]; gene Rv2831
  +CO/−CO: 2.7
[4]; gene Rv3126
  +CO/−CO: 1.8
[4]; gene Rv3127
  +CO/−CO: 2.7
[4]; gene Rv3130 tgs1
  +CO/−CO: 11
[4]; gene Rv3131
  +CO/−CO: 3.3
[4]; gene Rv3132 dos8 (devS)
  +CO/−CO: 3.1
[4]; gene Rv3133 dosR (devR)
  +CO/−CO: 3
[4]; gene Rv3134
  +CO/−CO: 7.1

Source: patent US9579381B2 (priority 2012, dated 2017)
